Data reported in US20120082623A1, “SHH Regulation and Methods Thereof” (priority 2009, published 2012).
“Also recorded” adds a separate entry of the source.

Tests used:
[1] = system: medial forebrain bundle (mFB); assay: Unilateral 6-OHDA injection into the medial forebrain bundle; turning bias and gene expression; format: in vivo, mouse; details: for Shh transcription in the vMB: wt and heterozygous GDNF mutant mice
[2] = system: SVZ proliferation; set-up: reduction in SVZ proliferation overall (PCNA) / reduction in proliferation in the C cell compartment (PCNA): concentration or dose not given beside the values; details: cited from earlier work; for reduction in SVZ proliferation overall (PCNA) / reduction in proliferation in the C cell compartment (PCNA): systemic MPTP or unilateral 6-OHDA into the nigro-striatal pathway
[3] = system: Shh-nLZ C/C; Dat-Cre mutant mice; assay: Gait dynamics on treadmill (DigiGait) after acute L-Dopa or THP in mice with Shh ablation from DA neurons; format: in vivo, mouse; details: for increased absolute paw angle / reduced brake time / Brake-Stride ratio: 12 month old mutant animals; for reduced brake time / Brake-Stride ratio: THP 3 mg/kg IP, 30 minutes prior
Source text: Given the involvement of the basal ganglia in the production of gait patterns, gait dynamics by ventral plane videography of mice walking on a translucent treadmill was investigated (Digigait system, Mouse specifics, Inc.), from which comparative temporal, spatial and force indices of gait were derived (Hampton et al., Physiol Behav. 2004 Sep. 15; 82(2-3):381-9; Amende et al., J Neuroeng Rehabil. 2005 Jul. 25; 2:20) of experimental and control animals from 3 to 16 months.
Either drug or vehicle control 30 minutes prior to the analysis of gait dynamics was injected in 12 month old animals. […] (FIG. 39D). […] (FIG. 39B). […] (FIG. 40C).
Gait dynamics by ventral plane videography of mice walking on a translucent treadmill (Digigait system, Mouse specifics, Inc.) were investigated, from which comparative temporal, spatial and force indices of gait were derived (Hampton et al., 2010) of Shh-nLZ^C/C; Dat-Cre—and control animals from 3 to 16 months of age (Table 1). Since altered posture can confound comparative gait analysis based on absolute measures, further analysis of locomotion on the tread mill was focused on gait length variability and relative indices of gait dynamics (relative time allotted to Swing, Brake, Propel and Stance phases) and foot angle. In Shh-nLZ^C/C; Dat-Cre mutants, gait length coefficient of variability was 30% increased at 10 months of age (FIG. 48C).
Many of the locomotion disturbances observed in Shh-nLZ^C/C; Dat-Cre were reminiscent of the functional hall marks of Parkinson's spectrum diseases which are characterized by a general impoverishment of locomotion, reduced fluidity of movement, difficulties in initiating and terminating locomotion, and increased stride length variability (Hausdorff et. al, 1998). Whether dopamine substitution by L-Dopa and the muscarinic antagonist trihexiphenidyl (THP), drugs of proven efficacy in the management of symptoms of PD related diseases, will modify acutely the locomotion deficits of Shh-nLZ^C/C; Dat-Cre mice, was tested.
Spontaneous motor activity was measured in an open field arena using automatic tracking at 6 Hz by an EthoVision 3.1 system (Noldus Information Technology, Leesburg, Va.). Derivation of acceleration and deceleration profiles and indices for turning bias and locomotion complexity is described below. Analysis of gait parameters by forced locomotion was performed by ventral plane videography on a translucent tread mill as described (Digigait, Inc.; Hampton et al., 2010).

[4] = system: Shh-nLZ C/C; Dat-Cre mutant mice; assay: Kinematic analysis of spontaneous locomotion (open field) after L-Dopa or THP; format: in vivo, mouse; details: phase III mutant animals
Experimental: In particular, Bradykinesia is observed in PD. Bradykinesia is the slowed ability to start and continue movements, and impaired ability to adjust the body's position. […] There were no significant differences in the maximal speed that control and mutant mice can travel at (FIG. 40E). The relative time each animals spends at different speeds during acceleration and deceleration in individual locomotion bouts was analyzed. The numbers of “surges”, that are the reversals from acceleration to deceleration and back within a single locomotion bout, were quantitated. The “speed bin” analysis and quantitation of surges type is schematized in FIG. 40F.
Mesostriatal computations take part in the sequencing of locomotor activity and in the termination of ongoing actions (Jin and Costa, 2010; Ding et al., 2010). These processes can be partially assessed by analysis of the kinematic complexity of individual bouts of locomotion in freely ambulating mice (Benjamini et al. 2011; see also Other Results and Discussion). Quantifying the number of alternations from acceleration to deceleration and back in individual bouts of locomotion of similar duration and overall amplitude (FIG. 63G; see also Other Results and Discussion), a 100% increase in locomotive complexity of Shh-nLZ^C/C; Dat-Cre mutants in phase II but a 40% decrease in complexity in phase III compared to control littermates was observed (FIG. 48F). How much time animals spend traveling at different velocities during individual bouts of locomotion of similar length and amplitude was quantified next (see Other Results and Discussion). In phase II mice spend most time locomoting at initial and at top speeds with no discernable differences between Shh-nLZ; Dat-Cre mutants and control littermates (FIG. 64A-B). In phase III, however, Shh-nLZ^C/C; Dat-Cre animals spend 50% more time at low velocities and 80% less time at submaximal speed levels before reaching maximal velocity (FIG. 48K and FIG. 64C). Shh-nLZ^C/C; Dat-Cre animals also spend more time at sub-maximal speed levels after the animal reached peak velocities in a given bout compared to controls (FIG. 64D). […]
Spontaneous motor activity was measured in an open field arena using automatic tracking at 6 Hz by an EthoVision 3.1 system (Noldus Information Technology, Leesburg, Va.). […]
The open field arena was a polycarbonate cage 30×60×25 cm placed in a sound proof chamber. Locomotion of each mouse was recorded and tracked automatically for 10 minutes after habituation. Motor activity was measured as total distance traveled and turning bias was calculated as the net turning angle divided by distance (degrees/cm). Turning bias was calculated by subtracting the sum of ipsi- to contra-lateral movements and is independent of displacement (Spink et al., 2001).

[5] = system: Th expressing dopaminergic neurons in the substantia nigra pars compacta; assay: MPTP paradigm with and without cyclopamine; stereological quantification of Th+ cells
[6] = system: MPTP-lesioned mice; details: oral administration; cited from earlier work
[7] = system: ALS patients; details: cited from earlier work
[8] = molecular target: T1, GDNF family receptor (GFR)α1 (Mus musculus, UniProt P97785); details: Neuro-2A cells; cited from earlier work
T1 construct: host or cells: Neuro-2A cells
T1 sequence (P97785 25-430): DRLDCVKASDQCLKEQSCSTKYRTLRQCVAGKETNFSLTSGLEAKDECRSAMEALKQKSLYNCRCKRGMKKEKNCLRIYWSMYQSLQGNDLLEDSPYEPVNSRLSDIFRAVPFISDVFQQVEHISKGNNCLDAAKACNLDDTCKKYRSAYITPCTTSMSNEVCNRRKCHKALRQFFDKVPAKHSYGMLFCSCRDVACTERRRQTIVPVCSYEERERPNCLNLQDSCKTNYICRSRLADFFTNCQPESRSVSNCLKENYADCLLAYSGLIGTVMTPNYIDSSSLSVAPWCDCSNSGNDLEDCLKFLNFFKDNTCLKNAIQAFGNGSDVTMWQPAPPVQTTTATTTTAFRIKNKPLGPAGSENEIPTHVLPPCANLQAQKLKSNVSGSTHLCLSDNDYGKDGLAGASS

[9] = system: Shh pathway; assay: Cyclopamine injection into soleus/calf muscle; GDNF and CNTF expression by qtPCR; format: in vivo, mouse; details: for dose dependence of neurotrophic factor up-regulation: soleus of endstage G93A SOD animals, 0.5, 1, or 2 μg
[10] = unilateral striatal deafferentation (Winner et al. 2006)
[11] = single systemic dose 1 hour prior to brain harvest
[12] = unilateral injection into the soleus of 125 day old G93A SOD transgenic animals

NCCc1cc(O)c(O)cc1O [6-OHDA, 6-hydroxy-dopamine]
GDNF and ChAT transcription in the striatum [1]: ipsi-lateral up-regulation of GDNF and ChAT transcription in the striatum | expression of Th in the vMB [1]: not affected | turning bias [1]: contra lateral turning bias | Shh transcription in the vMB [1]: up-regulation of Shh transcription in the ipsilateral ventral midbrain | Shh transcription in the vMB ([1]; listed as 6 OH-DA): ipsi-lateral up-regulation of Shh transcription in the vMB | GDNF transcription in the striatum ([1]; wt animals): No up regulation of GDNF transcription was detected | reduction in SVZ proliferation overall (PCNA) [2]: 40% | reduction in proliferation in the C cell compartment (PCNA) [2]: 50% | increase in the production of newly born Pax6+, TH+ periglomerular DA neurons in the olfactory bulb ipsilateral to the lesion [2, 10]: threefold | reduction in proliferation within the SVZ [2, 10]: 40%

N[C@@H](Cc1ccc(O)c(O)c1)C(=O)O [L-Dopa, Levodopa]
increased absolute paw angle [3]: normalized the alterations in paw angles | reduced brake time / Brake-Stride ratio ([3]; L-Dopa 20 mg/kg SC): did not correct the reduction in brake time | reduced brake time / Brake-Stride ratio ([3]; L-Dopa 20 mg/kg SC, listed as L-DOPA): not L-DOPA | increased absolute paw angle ([3]; listed as L-DOPA): normalized by L-DOPA | Brake-Stride ratios ([3]; experimental and control animals, L-Dopa 20 mg/kg SC): reduced Brake-Stride ratios in both experimental and control animals | deficits in the initiation of acceleration and deceleration (time at low speeds) [4]: partially normalized; also recorded: normalize the deficit during locomotion initiation; also recorded: ameliorated the deficits in the initiation of acceleration and deceleration; also recorded: ameliorate the deficits at low speeds | time spent locomoting at high / sub-maximal speeds [4]: Neither drug effected the time spend locomoting at sub-maximal speeds; also recorded: not those observed at higher speeds; also recorded: neither drug normalized the time; also recorded: do not normalize the differences at high locomotion speeds

CN1CC=C(c2ccccc2)CC1 [MPTP, 1-methyl-4-phenyl-1,2,3,6-tetrahydropyridine]
reduction in SVZ proliferation overall (PCNA) [2]: 40% | reduction in proliferation in the C cell compartment (PCNA) [2]: 50% | reduction in the numbers of Th+ cells compared to vehicle controls ([5]; MPTP 30 mg/kg/day for 4 days, day 33, n=5): 39%

C[C@H]1CC[C@@]2(OC1)O[C@H]1C[C@H]3[C@@H]4CC[C@@H]5C[C@@H](O)CC[C@]5(C)[C@H]4CC[C@]3(C)[C@H]1[C@@H]2C [PYM50028]
loss of dopaminergic neurons from the substantia nigra [6]: attenuated the loss of dopaminergic neurons from the substantia nigra | striatal GDNF [6]: significant elevation of striatal GDNF

Nc1nc2ccc(OC(F)(F)F)cc2s1 [Riluzole]
measures of function [7]: has not been shown to have significant effect on measures of function

CCCN(CCC)CCc1cccc2c1CC(=O)N2 [Ropinirole]
mitotic activity of the SVZ (PCNA+ cells) on the lesioned side [2, 11]: restores the mitotic activity of the SVZ | proliferative index on the unlesioned side [2, 11]: increases the proliferative index on the unlesioned side

OC(CCN1CCCCC1)(c1ccccc1)C1CCCCC1 (centres unmarked) [THP, Trihexyphenidyl]
increased absolute paw angle [3]: not by THP | reduced brake time / Brake-Stride ratio ([3]; L-Dopa 20 mg/kg SC): normalized by THP; also recorded: normalized Brake Stride ratios to control levels; also recorded: normalized Brake-Stride ratios to control levels | deficits in the initiation of acceleration and deceleration (time at low speeds) [4]: partially normalized; also recorded: normalize the deficit during locomotion initiation; also recorded: ameliorated the deficits in the initiation of acceleration and deceleration; also recorded: ameliorate the deficits at low speeds | time spent locomoting at high / sub-maximal speeds [4]: Neither drug effected the time spend locomoting at sub-maximal speeds; also recorded: not those observed at higher speeds; also recorded: neither drug normalized the time; also recorded: do not normalize the differences at high locomotion speeds

CCN(CC)CCCC(C)Nc1cc(/C=C/c2ccccc2Cl)nc2cc(Cl)ccc12 (centres unmarked) [XIB4035]
neurotrophic effects [8]: mimics the neurotrophic effects of GDNF

CC1=C2C[C@H]3[C@@H](CC=C4C[C@@H](O)CC[C@@]43C)[C@@H]2CC[C@]12O[C@@H]1C[C@H](C)CN[C@H]1[C@H]2C [cyclopamine]
up regulation of GDNF expression in the muscle ([9]; injection into calf muscles of control animals): 20 fold | effect on GDNF expression in adult muscles ([9]; injection into limb muscle of wild type (wt) and G93A SOD1 mice): up regulation of GDNF expression | up-regulation of CNTF ([9]; injection into the calf muscles of end stage G93A SOD mice): 20 fold | maximal up regulation of GDNF, fold change in gene expression over control side ([9]; right soleus of 125 day old G93A SOD transgenic animals, 1 mg of Cyclopamine, 30 h post injection): 27 fold | maximal upregulation of CNTF, fold change in gene expression over control side ([9]; right soleus of 125 day old G93A SOD transgenic animals, 2 mg of cyclopamine, 30 h post injection): 20 fold | dose dependence of neurotrophic factor up-regulation [9]: dose dependent up-regulation of neurotrophic factor expression | dose dependence of neurotrophic factor up-regulation ([9]; listed as Cyclopamine): dose dependent up-regulation of GDNF and CNTF | increase in CNTF expression over the saline injected contra lateral control soleus [9, 12]: 8 fold | increase in GDNF expression over the saline injected contra lateral control soleus [9, 12]: 12 fold | reduction in Th+ cells in the ventral midbrain compared to control animals ([5]; MPTP plus cyclopamine 50 mg/kg/day by osmotic micropump, n=1): 21% | effect on MPTP induced neurodegeneration ([5]; MPTP plus cyclopamine 50 mg/kg/day, n=1): statistically significant reduction in neurodegeneration
